Reference: patent US20040142960A1 (priority 2001, published 2004)
Structures can show the parent of a compound that is named as a salt.

Assays:
[1] = system: bone marrow cells; conditions: concentrations at which the adrenergic antagonists are effective; cited from earlier work
[2] = system: HSV-1; conditions: cited from earlier work
[3] = system: Langerhans cells; conditions: administered intraperitoneally; cited from earlier work
[4] = system: HSV-1; assay: systemic or local treatment, HSV-1 reactivation from latency; assay type: in vivo
[5] = antibody response in treated subjects; assay type: in vivo

Cc1ccc(N(CC2=NCCN2)c2cccc(O)c2)cc1 [phentolamine]
relative order of potency in counteracting norepinephrine [1]: prazosin>phentolamine>yohimbine

COc1cc2nc(N3CCN(C(=O)c4ccco4)CC3)nc(N)c2cc1OC [prazosin]
relative order of potency in counteracting norepinephrine [1]: prazosin>phentolamine>yohimbine

COC(=O)[C@@H]1[C@H]2C[C@H]3c4[nH]c5ccccc5c4CCN3C[C@@H]2CC[C@@H]1O [yohimbine hydrochloride]
activity on HSV-1 [2]: inactive

COC(=O)[C@@H]1[C@H]2C[C@H]3c4[nH]c5ccccc5c4CCN3C[C@@H]2CC[C@@H]1O [yohimbine, (16α,17α)-hydroxyyohimban-16-carboxylic acid methyl ester]
Langerhans cells migration [3]: enhances the Langheran's cells migration | inflammation during HSV-1 reactivation ([4]; in vivo): reduced inflammation | HSV-1 reactivation frequency ([4]; systemic or local treatment): reduces the HSV-1 reactivation frequency | local norepinephrine concentration ([4]; systemic or local treatment): local increase of norepinephrine concentration | antibody response [5]: stimulates and enhances the antibody response
